# Laboratory results published in publication PMC4919555 (EBioMedicine, 2016).
# Where two headings read alike, the source gives them in different places.
# Tests used:
# [1] = tested on: M. tuberculosis wild-type, katG-null and katG-overexpressing strains; assay type: cell-based
# [2] = tested on: M. tuberculosis clinical isolates; assay type: cell-based
Compound,Killing of katG-null mutant strain [1],"Ratio (MIC relative to H37Rv) ([2]; CI1, − 15 C/T inhA)","Ratio (MIC relative to H37Rv) ([2]; CI2, − 15 C/T inhA)","Ratio (MIC relative to H37Rv) ([2]; CI3, − 15 C/T inhA)",Response of katG-null mutant [1],"Response of katG-overexpressing strain ([1]; 3.6 μM (0.5 μg/ml), 4 days)"
"Cc1csc([C@](C)(O)c2nnc(Nc3ccn(Cc4csc(C)n4)n3)s2)n1 [GSK693, (S)-1-(4-methylthiazol-2-yl)-1-(5-((1-((2-methylthiazol-4-yl)methyl)-1H-pyrazol-3-yl)amino)-1,3,4-thiadiazol-2-yl)ethanol]",killed equally well as the wild-type strain,,,,,
"NNC(=O)c1ccncc1 [INH, isoniazid]",,6,3,3,resistant,more sensitive compared to the wild-type strain
